From PMC10885410, “Mining and functional characterization of NADPH-cytochrome P450 reductases of the DNJ biosynthetic pathway in mulberry leaves” (BMC Plant Biology, 2024)

Assays:
MaC3'H-MaCPR2 = target: T1, MaC3'H-MaCPR2 (Morus alba, UniProt A0A5P9L9Q5); test: yeast feeding, product by HPLC and LC-MS; type: cell-based; conditions: 100 μM fed to yeast culture, 48 h, 30 °C; needs co-expressed MaCPR2
T1 construct: full ORFs of MaC3'H and MaCPR2 (715 aa) co-expressed from pESC-Trp (GAL1/GAL10) in Saccharomyces cerevisiae INVSc1; with NADPH--cytochrome P450 reductase
T1 sequence (A0A5P9L9Q5 1-509): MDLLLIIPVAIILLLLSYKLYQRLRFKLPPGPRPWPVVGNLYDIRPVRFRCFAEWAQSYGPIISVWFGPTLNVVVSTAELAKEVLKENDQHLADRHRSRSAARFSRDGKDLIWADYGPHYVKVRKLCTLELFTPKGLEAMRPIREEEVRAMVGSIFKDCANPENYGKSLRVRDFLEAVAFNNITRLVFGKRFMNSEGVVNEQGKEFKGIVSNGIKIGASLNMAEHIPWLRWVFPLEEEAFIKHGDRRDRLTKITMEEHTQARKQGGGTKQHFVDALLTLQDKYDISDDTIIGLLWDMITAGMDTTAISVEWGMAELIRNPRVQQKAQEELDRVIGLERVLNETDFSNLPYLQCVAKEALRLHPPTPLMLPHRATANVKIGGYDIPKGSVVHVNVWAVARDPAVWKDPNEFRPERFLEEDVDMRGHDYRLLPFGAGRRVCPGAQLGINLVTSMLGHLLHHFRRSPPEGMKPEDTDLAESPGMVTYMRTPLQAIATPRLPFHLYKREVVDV

[1] = system: NC(=O)C1=CN([C@@H]2O[C@H](COP(=O)(O)OP(=O)(O)OC[C@H]3O[C@@H](n4cnc5c(N)ncnc54)[C@H](OP(=O)(O)O)[C@@H]3O)[C@@H](O)[C@H]2O)C=CC1; test: purified protein; conditions: cytochrome c 200 μM, 50 mM Tris-HCl pH 7.4, 0.1 mM EDTA, 25 °C, varied: cofactor

Q: With `O=C(/C=C/c1ccc(O)cc1)O[C@@H]1C[C@](O)(C(=O)O)C[C@@H](O)[C@H]1O` [3-O-p-coumaroylquinic acid] as the compound, how does the “yeast feeding, product by HPLC and LC-MS” value (MaC3'H-MaCPR2) read?
A: Its value is “transfers electrons to MaC3'H hydroxylase, thus transforming 3-O-p-coumaroylquinic acid into chlorogenic acid”.

Q: For `O=C(/C=C/c1ccc(O)c(O)c1)O[C@@H]1C[C@](O)(C(=O)O)C[C@@H](O)[C@H]1O` [chlorogenic acid], which “yeast feeding, product by HPLC and LC-MS” value (MaC3'H-MaCPR2) is on record?
A: The value was “expected product chlorogenic acid was detected in MaC3'H-MaCPR2/pESC-Trp/INVSCI engineered bacteria”.

Q: For MaCPR2 (Morus alba), which Km [1] is on record?
A: The Km was 13.93 ± 1.54 µM.

Q: What about the Vmax [1] of the same compound?
A: Its Vmax is 2.43 µmol/min/mg.
